Read-outs that look alike come from different tables or passages of the source.
How the values were obtained:
[1] = test system: HCV genotype 1b replicon; assay: HCV replicon luciferase reporter assay, genotype 1b (LE_1b); assay type: cell-based; settings: Hepatitis C virus, 72 h, HUH-7 cells, genotype 1b (Con1) replicon, 3 days incubation, Renilla luciferase
Excerpt: An HCV replicon whole cell system was established as described by Lohmann V, Korner F, Koch J, Herian U, Theilmann L, Bartenschlager R., Science 285(5424):110-3 (1999) and modified to introduce a luciferase reporter, as first described by Krieger et al (Krieger N, Lohmann V, and Bartenschlager R, J. Virol. 75(10):4614-4624 (2001)). cDNA encoding a humanized form of the Renilla luciferase gene and a linker sequence fused directly to the 3′-end of the luciferase gene were introduced into the replicon construct using an Asc1 restriction site located in core, directly upstream of the neomycin marker gene. The adaptive mutation at position 1179 (serine to isoleucine) was also introduced (Blight K J, Kolykhalov, A A, Rice, C M, Science 290(5498):1972-1974). A stable cell line constitutively expressing this HCV replicon construct was generated by first linearizing plasmid DNAs with ScaI. RNA transcripts were synthesized in vitro using the T7 MegaScript transcription kit (Ambion, Austin, Tex.) according to manufacturer's directions. In vitro transcripts of the cDNA were transfected into the human hepatoma cell line, HUH-7. […] Resulting cell lines were characterized for positive and negative strand RNA production and protein production over time. […]
(§1) HCV replicon luciferase assays were developed to monitor the inhibitory effects of compounds described in the disclosure on HCV genotypes 1a and 1b viral replication. HUH-7 cells, constitutively expressing the HCV replicon, were grown in Dulbecco's Modified Eagle Media (DMEM) (Gibco-BRL) containing 10% Fetal calf serum (FCS) (Sigma) and 1 mg/mL G418 (Gibco-BRL). Compounds were serially diluted 3 folds in DMSO for a twenty-point titration and subsequently transferred to sterile 384-well tissue-culture treated plates (Corning cat #3571). The plates were then seeded with 50 μL of cells at a density of 3.0×10^3 cells/well in DMEM containing 4% FCS (final DMSO concentration at 0.5%). After 3 days incubation at 37° C., cells were analyzed for Renilla Luciferase activity using the EnduRen as substrate (Promega cat #E6485). The EnduRen substrate was diluted in DMEM and then added to the plates to a final concentration of 7.5 μM. The plates were incubated for 2 hrs at 37° C. and then read immediately for 30 seconds with Viewlux Imager (PerkinElmer) using a luminescence program. To assess cytotoxicity of compounds, CC50 values were generated by multiplexing the EnduRen-containing plates with Cell Titer-Blue (Promega, cat #G8082). Cell-Titer Blue (3 μL) was added to each well and incubated for 8 hrs at 37° C. The fluorescence signal from each well was read, with an excitation wavelength at 525/10 nm and an emission wavelength of 598/10 nm, using the Viewlux Imager.
(§2) The EC50 values for compounds were calculated by using a four-parameter logistic equation: y=A+((B−A)/(1+((C/x)^D))), where A and B denotes minimal and maximal % inhibition, respectively, C is the EC50, D is the hill slope and x represents compound concentration.

[2] = test system: HCV genotype 1a replicon; assay: HCV replicon luciferase reporter assay, genotype 1a (LE_1a); assay type: cell-based; settings: Hepatitis C virus, 72 h, HUH-7 cells, genotype 1a H77 replicon, 3 days incubation, Renilla luciferase
Excerpt: An HCV replicon whole cell system was established as described by Lohmann V, Korner F, Koch J, Herian U, Theilmann L, Bartenschlager R., Science 285(5424):110-3 (1999) and modified to introduce a luciferase reporter, as first described by Krieger et al (Krieger N, Lohmann V, and Bartenschlager R, J. Virol. 75(10):4614-4624 (2001)). cDNA encoding a humanized form of the Renilla luciferase gene and a linker sequence fused directly to the 3′-end of the luciferase gene were introduced into the replicon construct using an Asc1 restriction site located in core, directly upstream of the neomycin marker gene. The adaptive mutation at position 1179 (serine to isoleucine) was also introduced (Blight K J, Kolykhalov, A A, Rice, C M, Science 290(5498):1972-1974). A stable cell line constitutively expressing this HCV replicon construct was generated by first linearizing plasmid DNAs with ScaI. RNA transcripts were synthesized in vitro using the T7 MegaScript transcription kit (Ambion, Austin, Tex.) according to manufacturer's directions. In vitro transcripts of the cDNA were transfected into the human hepatoma cell line, HUH-7. […] Resulting cell lines were characterized for positive and negative strand RNA production and protein production over time.
A stable HCV replicon luciferase reporter cell line representing the genotype 1a H77 strain (Yanagi M, Purcell R H, Emerson S U, et al. Transcripts from a single full-length cDNA clone of hepatitis C virus are infectious when directly transfected into the liver of a chimpanzee. Proc Natl Acad Sci USA 1997; 94(16):8738-8743) was generated as described previously for the genotype 1b(Con1) replicon luciferase cell line. The replicon construct was modified by introducing mutations were introduced into the genes encoding the NS3 helicase domain (proline replaced by leucine at position 1496) and NS5A (serine to isoleucine at position 2204) to improve replication in cell culture.
as §1, §2

Row | Structure (SMILES) | EC50 ([1]; read-out: LE_1b (EC50, range)) [nM] | EC50 ([2]; read-out: LE_1a (EC50, range)) [nM] | EC50 ([1]; read-out: LE_1b (EC50)) [nM] | EC50 ([2]; read-out: LE_1a (EC50)) [nM]
1 | [2H]C([2H])([2H])C1(S(=O)(=O)NC(=O)[C@@]23C[C@H]2/C=C\CC[C@@H](C)C[C@@H](CC)[C@H](NC(=O)OC(C)(C)C)C(=O)N2C[C@H](Oc4nccc5cc(OC)c(F)cc45)C[C@H]2C(=O)N3)CC1 [Compound 5507] | 0.51 to 1 | 1.01 to 5 |  | 
2 | [2H]C([2H])([2H])C1(S(=O)(=O)NC(=O)[C@@]23C[C@H]2/C=C\CC[C@@H](C)C[C@@H](CC)[C@H](NC(=O)OC(C)(C)C)C(=O)N2C[C@H](Oc4nccc5cc(OCC)c(F)cc45)C[C@H]2C(=O)N3)CC1 [Compound 5509] | 0.51 to 1 | 1.01 to 5 |  | 
3 | [2H]C([2H])([2H])C1(S(=O)(=O)NC(=O)[C@@]23C[C@H]2/C=C\CC[C@@H](C)C[C@@H](CC)[C@H](NC(=O)OC(C)(C)C(F)(F)F)C(=O)N2C[C@H](Oc4nccc5cc(OC)c(F)cc45)C[C@H]2C(=O)N3)CC1 [Compound 5511] | 1.01 to 5 | 1.01 to 5 |  | 
4 | [2H]C([2H])([2H])C1(S(=O)(=O)NC(=O)[C@@]23C[C@H]2/C=C\CC[C@@H](C)C[C@@H](CC)[C@H](NC(=O)OC(C)(C)C(C)(F)F)C(=O)N2C[C@H](Oc4nccc5cc(OC)c(F)cc45)C[C@H]2C(=O)N3)CC1 [Compound 5513] | 0.51 to 1 | 1.01 to 5 |  | 
5 | [2H]C([2H])([2H])C1(S(=O)(=O)NC(=O)[C@@]23C[C@H]2/C=C\CC[C@@H](C)C[C@@H](CC)[C@H](NC(=O)OC(C)(C)C(F)F)C(=O)N2C[C@H](Oc4nccc5cc(OC)c(F)cc45)C[C@H]2C(=O)N3)CC1 [Compound 5515] | 0.51 to 1 | 1.01 to 5 |  | 
6 | [2H]C([2H])([2H])C1(S(=O)(=O)NC(=O)[C@@]23C[C@H]2/C=C\CC[C@@H](C)C[C@@H](CC)[C@H](NC(=O)OC(C)(C)C(C)(F)F)C(=O)N2C[C@H](Oc4nccc5cc(OCC)c(F)cc45)C[C@H]2C(=O)N3)CC1 [Compound 5519] | 0.51 to 1 | 1.01 to 5 |  | 
7 | [2H]C([2H])([2H])C1(S(=O)(=O)NC(=O)[C@@]23C[C@H]2/C=C\CC[C@@H](C)C[C@@H](CC)[C@H](NC(=O)OC(C)(C)C(F)F)C(=O)N2C[C@H](Oc4nccc5cc(OCC)c(F)cc45)C[C@H]2C(=O)N3)CC1 [Compound 5521] | 0.1 to 0.5 | 1.01 to 5 | 0.47 | 1.23
8 | [2H]C([2H])([2H])C1(S(=O)(=O)NC(=O)[C@@]23C[C@H]2/C=C\CC[C@@H](C)C[C@@H](CC)[C@H](NC(=O)OC(C)(C)C(F)F)C(=O)N2C[C@H](Oc4ncc(OC)c5ccccc45)C[C@H]2C(=O)N3)CC1 [Compound 5549] | 0.51 to 1 | 0.51 to 1 |  | 
9 | C[C@@H]1CC/C=C\[C@@H]2C[C@@]2(C(=O)NS(=O)(=O)C2(C)CC2)NC(=O)[C@@H]2C[C@@H](Oc3nc4nncn4c4ccccc34)CN2C(=O)[C@@H](NC(=O)OC(C)(C)C)[C@H](C)C1 [Compound 6120, tert-butyl((2R,6S,7R,9R,13aS,14aR,16aS,Z)-2-([1,2,4]triazolo[4,3-a]quinazolin-5-yloxy)-7,9-dimethyl-14a-(((1-methylcyclopropyl)sulfonyl)carbamoyl)-5,16-dioxo-1,2,3,5,6,7,8,9,10,11,13a,14,14a,15,16,16a-hexadecahydrocyclopropa[e]pyrrolo[1,2-a][1,4]diazacyclopentadecin-6-yl)carbamate] | 35 to 145 | 35 to 145 |  | 
10 | C[C@@H]1CC/C=C\[C@@H]2C[C@@]2(C(=O)NS(=O)(=O)C2(C)CC2)NC(=O)[C@@H]2C[C@@H](Oc3nc4nccn4c4ccccc34)CN2C(=O)[C@@H](NC(=O)OC(C)(C)C)[C@H](C)C1 [Compound 6122, tert-butyl((2R,6S,7R,9R,13aS,14aR,16aS,Z)-2-(imidazo[1,2-a]quinazolin-5-yloxy)-7,9-dimethyl-14a-(((1-methylcyclopropyl)sulfonyl)carbamoyl)-5,16-dioxo-1,2,3,5,6,7,8,9,10,11,13a,14,14a,15,16,16a-hexadecahydrocyclopropa[e]pyrrolo[1,2-a][1,4]diazacyclopentadecin-6-yl)carbamate] | 35 to 145 | 35 to 145 | 72.5 | 72
11 | C[C@@H]1CC/C=C\[C@@H]2C[C@@]2(C(=O)NS(=O)(=O)C2(C)CC2)NC(=O)[C@@H]2C[C@@H](Oc3nc4nncn4c4ccccc34)CN2C(=O)[C@@H](NC(=O)OC(C)(C)C(F)(F)F)[C@H](C)C1 [Compound 6125] | 35 to 145 | 35 to 145 |  | 
12 | C[C@@H]1CC/C=C\[C@@H]2C[C@@]2(C(=O)NS(=O)(=O)C2(C)CC2)NC(=O)[C@@H]2C[C@@H](Oc3nc4nccn4c4ccccc34)CN2C(=O)[C@@H](NC(=O)OC(C)(C)C(F)(F)F)[C@H](C)C1 [Compound 6127] | 5.01 to 35 | 5.01 to 35 |  | 
13 | C[C@@H]1CC/C=C\[C@@H]2C[C@@]2(C(=O)NS(=O)(=O)C2(C)CC2)NC(=O)[C@@H]2C[C@@H](Oc3nc4nccn4c4ccc(Cl)cc34)CN2C(=O)[C@@H](NC(=O)OC(C)(C)C(F)(F)F)[C@H](C)C1 [Compound 6129] | 0.51 to 1 | 1.01 to 5 | 0.78 | 4.21
14 | C[C@@H]1CC/C=C\[C@@H]2C[C@@]2(C(=O)NS(=O)(=O)C2(CF)CC2)NC(=O)[C@@H]2C[C@@H](Oc3nc4nccn4c4ccc(Cl)cc34)CN2C(=O)[C@@H](NC(=O)OC(C)(C)C(F)(F)F)[C@H](C)C1 [Compound 6131] | 1.01 to 5 | 5.01 to 35 |  | 
15 | CC[C@@H]1C[C@H](C)CC/C=C\[C@@H]2C[C@@]2(C(=O)NS(=O)(=O)C2(C)CC2)NC(=O)[C@@H]2C[C@@H](Oc3nc4nccn4c4ccc(Cl)cc34)CN2C(=O)[C@H]1NC(=O)OC(C)(C)C(F)(F)F [Compound 6133] | 0.51 to 1 | 5.01 to 35 |  | 
16 | Cc1cn2c(n1)nc(O[C@@H]1C[C@H]3C(=O)N[C@]4(C(=O)NS(=O)(=O)C5(C)CC5)C[C@H]4/C=C\CC[C@@H](C)C[C@@H](C)[C@H](NC(=O)OC(C)(C)C(F)(F)F)C(=O)N3C1)c1cc(Cl)ccc12 [Compound 6135] | 0.51 to 1 | 1.01 to 5 |  | 
17 | Cc1cn2c(n1)nc(O[C@@H]1C[C@H]3C(=O)N[C@]4(C(=O)NS(=O)(=O)C5(C)CC5)C[C@H]4/C=C\CC[C@@H](C)C[C@@H](C)[C@H](NC(=O)OC(C)(C)C(C)(F)F)C(=O)N3C1)c1cc(Cl)ccc12 [Compound 6137] | 0.51 to 1 | 1.01 to 5 |  | 
18 | Cc1cn2c(n1)nc(O[C@@H]1C[C@H]3C(=O)N[C@]4(C(=O)NS(=O)(=O)C5(CF)CC5)C[C@H]4/C=C\CC[C@@H](C)C[C@@H](C)[C@H](NC(=O)OC(C)(C)C(F)(F)F)C(=O)N3C1)c1cc(Cl)ccc12 [Compound 6139] | 1.01 to 5 | 5.01 to 35 |  | 
